Reference: ChEMBL document CHEMBL1201862, “PubChem BioAssay data set” (2004)
Activity calls are given as the source filed them.

How the values were obtained:
[1] = blockers of HIV-1 ZM109 envelope-driven cell-cell fusion – HeLa effector, CEM target cells, luciferase, cherry-pick, dose response (AID 652058); format: functional, cell-based;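 also: luciferase signal from HIV-1 Env mediated cell-cell fusion of effector and target cells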
[2] = blockers of HIV-1 envelope-mediated cell-cell fusion – cherry-pick, dose response (AID 652057); format: functional, cell-based
[3] = HIV-1 AD8 envelope cell-cell fusion blockers – cherry-pick, dose response (AID 652062); format: functional, cell-based;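 also: luciferase signal from cell-cell fusion driven by HIV-1 clade B AD8 Env; potency is for inhibitors of fusion seen as a drop in luminescence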
[4] = molecular target: Voltage-dependent T-type calcium channel subunit alpha-1H (Homo sapiens, UniProt O95180); format: functional;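 also: channel activity triggered by adding a high calcium stimulation buffer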
[5] = molecular target: T1, Fatty acid synthase (Homo sapiens, UniProt P49327); assay: inhibition of human FAS-TE enzyme activity – biochemical, kinetic fluorescence intensity, dose response (AID 624326); format: functional;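 also: rate of fluorescence rise from hydrolysis of a fluorogenic O-methyl fluorescein ester substrate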
[6] = molecular target: T1, Fatty acid synthase; assay: inhibition of human FAS-TE enzyme activity – biochemical, endpoint fluorescence intensity, uHTS hits, dose response (AID 624327); format: functional;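 also: fluorescence from hydrolysis of an O-methyl fluorescein acyl ester substrate by the enzyme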
[7] = molecular target: T2, High affinity choline transporter 1 (Homo sapiens, UniProt Q9GZV3); assay: human choline transporter blockers, potency – cell-based, 5-point CRC, membrane potential dye, dose response (AID 504840); format: functional
T2 sequence (Q9GZV3 whole entry): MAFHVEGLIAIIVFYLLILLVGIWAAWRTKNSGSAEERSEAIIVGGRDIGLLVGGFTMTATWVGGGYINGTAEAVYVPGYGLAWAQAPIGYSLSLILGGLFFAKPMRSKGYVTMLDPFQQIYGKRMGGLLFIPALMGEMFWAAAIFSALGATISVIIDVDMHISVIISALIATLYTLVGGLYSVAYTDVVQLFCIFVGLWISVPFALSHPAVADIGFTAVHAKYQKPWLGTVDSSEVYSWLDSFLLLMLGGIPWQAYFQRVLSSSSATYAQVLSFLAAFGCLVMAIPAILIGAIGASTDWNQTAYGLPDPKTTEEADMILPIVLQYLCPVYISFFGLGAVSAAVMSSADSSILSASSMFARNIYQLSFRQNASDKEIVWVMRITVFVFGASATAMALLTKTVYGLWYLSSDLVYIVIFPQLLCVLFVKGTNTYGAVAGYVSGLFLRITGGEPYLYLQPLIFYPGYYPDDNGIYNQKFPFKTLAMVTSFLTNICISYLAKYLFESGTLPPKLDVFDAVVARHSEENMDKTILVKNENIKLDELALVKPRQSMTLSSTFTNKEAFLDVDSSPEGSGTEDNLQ

[8] = molecular target: T3, Ubiquitin-conjugating enzyme E2 N (Homo sapiens, UniProt P61088); format: functional;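 also: Dose-response confirmation in a TR-FRET assay detecting UBC13-driven polyubiquitin chain formation, inhibition measured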
T3 sequence (P61088 whole entry): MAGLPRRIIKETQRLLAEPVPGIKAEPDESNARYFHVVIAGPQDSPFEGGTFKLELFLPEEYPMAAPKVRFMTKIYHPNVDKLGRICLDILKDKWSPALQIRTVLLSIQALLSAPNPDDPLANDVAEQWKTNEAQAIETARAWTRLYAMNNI

[9] = viability of PTEN-deleted HCT116 cells – cell-based, HCT116 PTEN knockout, dose response (AID 1047); format: functional;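 also: HCT116 colon tumor cells with PTEN knocked out; cells exposed to compound for 60 hours before readout; potency for loss of cell viability measured by luminescence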
[10] = viability of HCT116 lacking mutant beta-catenin – cell-based, human colon tumor, dose response (AID 1045); format: functional;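 also: HCT116 colon tumor cells with beta catenin knocked out; cells exposed to compound for 60 hours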
[11] = cells; format: functional, cell-based
[12] = molecular target: T4, Heat shock factor protein 1 (Mus musculus, UniProt P38532); assay: decrease of HSF1-responsive luciferase luminescence – cell-based, NIH3T3, dose retest, confirmation (AID 2382); format: functional;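 also: NIH3T3 fibroblasts with HSF1-driven luciferase reporter stressed by proteasome inhibitor MG132; luminescence from HSF1-driven luciferase expression after 8 hours of MG132 stress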
T4 sequence (P38532 whole entry): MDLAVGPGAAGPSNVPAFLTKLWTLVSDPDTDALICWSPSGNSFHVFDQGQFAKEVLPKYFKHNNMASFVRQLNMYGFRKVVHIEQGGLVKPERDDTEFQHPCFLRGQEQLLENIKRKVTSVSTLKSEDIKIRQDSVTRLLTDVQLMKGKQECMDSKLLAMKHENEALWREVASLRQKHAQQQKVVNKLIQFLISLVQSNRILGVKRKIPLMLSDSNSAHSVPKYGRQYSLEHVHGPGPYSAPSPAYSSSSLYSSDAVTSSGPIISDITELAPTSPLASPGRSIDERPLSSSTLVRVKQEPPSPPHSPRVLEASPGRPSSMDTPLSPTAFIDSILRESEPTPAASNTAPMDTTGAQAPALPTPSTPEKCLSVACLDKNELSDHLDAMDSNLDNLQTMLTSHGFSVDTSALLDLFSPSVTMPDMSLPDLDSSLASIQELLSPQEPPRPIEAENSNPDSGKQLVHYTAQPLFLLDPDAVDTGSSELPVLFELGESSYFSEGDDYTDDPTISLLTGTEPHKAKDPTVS

[13] = cells; format: functional, cell-based; remark: listed apart in the source
[14] = molecular target: Beta-galactosidase (Escherichia coli, UniProt Q8VNN2); assay: PubChem AID 485352; format: functional
[15] = molecular target: T5, Type-1 angiotensin II receptor (Homo sapiens, UniProt P30556); assay: antagonism of angiotensin II type 1 receptor – cell-based, uHTS hits, selectivity assay for APJ receptor antagonist project, dose response (AID 463214); format: functional;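 also: antagonist potency against angiotensin II stimulated AT1 response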
T5 sequence (P30556 whole entry): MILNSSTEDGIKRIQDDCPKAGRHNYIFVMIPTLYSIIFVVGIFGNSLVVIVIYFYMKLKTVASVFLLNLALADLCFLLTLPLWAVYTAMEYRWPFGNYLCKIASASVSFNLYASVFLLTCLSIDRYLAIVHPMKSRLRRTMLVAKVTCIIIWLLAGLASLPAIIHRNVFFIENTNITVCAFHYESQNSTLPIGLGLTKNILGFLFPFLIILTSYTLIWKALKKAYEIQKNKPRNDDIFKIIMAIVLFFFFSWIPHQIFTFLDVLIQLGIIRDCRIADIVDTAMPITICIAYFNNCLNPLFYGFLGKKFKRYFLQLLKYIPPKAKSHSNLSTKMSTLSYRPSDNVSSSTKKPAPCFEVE

[16] = molecular target: T6, Rac GTPase-activating protein 1 (Homo sapiens, UniProt Q9H0H5); assay: blockers of MgcRacGAP-driven Rac1 GTP hydrolysis – biochemical, ADP Hunter fluorescence, primary and confirmatory, confirmation (AID 624330); format: functional
T6 sequence (Q9H0H5 whole entry): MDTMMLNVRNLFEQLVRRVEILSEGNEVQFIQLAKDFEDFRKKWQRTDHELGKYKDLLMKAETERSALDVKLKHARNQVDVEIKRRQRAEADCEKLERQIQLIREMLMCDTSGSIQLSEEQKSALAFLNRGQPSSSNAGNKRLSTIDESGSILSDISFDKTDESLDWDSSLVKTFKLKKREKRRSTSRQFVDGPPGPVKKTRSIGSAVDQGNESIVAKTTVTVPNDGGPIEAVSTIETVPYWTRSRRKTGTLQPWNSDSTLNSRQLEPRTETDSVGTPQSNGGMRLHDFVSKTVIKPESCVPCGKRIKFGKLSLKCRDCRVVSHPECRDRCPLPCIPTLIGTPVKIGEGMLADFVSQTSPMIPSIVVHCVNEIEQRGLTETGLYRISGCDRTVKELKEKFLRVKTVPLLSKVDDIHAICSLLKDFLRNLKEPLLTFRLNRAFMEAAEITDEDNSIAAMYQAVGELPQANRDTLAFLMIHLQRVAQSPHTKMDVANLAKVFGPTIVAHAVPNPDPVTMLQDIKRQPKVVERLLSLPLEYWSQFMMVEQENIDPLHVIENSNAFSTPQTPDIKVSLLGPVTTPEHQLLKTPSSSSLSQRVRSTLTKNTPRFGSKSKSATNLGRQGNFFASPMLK

[17] = Luminescence Cell-Based Dose Retest to Confirm Inhibitors of Cancer Stem Cells. [Related pubchem assays (depositor defined):AID2717, AID2721]; format: functional; details: Homo sapiens
[18] = molecular target: T7, Calpain-2 catalytic subunit (Sus scrofa, UniProt P43367); assay: m-calpain protease blockers, concentration series – biochemical, fluorogenic peptide substrate, dose response (AID 1420); format: functional
T7 sequence (P43367 whole entry): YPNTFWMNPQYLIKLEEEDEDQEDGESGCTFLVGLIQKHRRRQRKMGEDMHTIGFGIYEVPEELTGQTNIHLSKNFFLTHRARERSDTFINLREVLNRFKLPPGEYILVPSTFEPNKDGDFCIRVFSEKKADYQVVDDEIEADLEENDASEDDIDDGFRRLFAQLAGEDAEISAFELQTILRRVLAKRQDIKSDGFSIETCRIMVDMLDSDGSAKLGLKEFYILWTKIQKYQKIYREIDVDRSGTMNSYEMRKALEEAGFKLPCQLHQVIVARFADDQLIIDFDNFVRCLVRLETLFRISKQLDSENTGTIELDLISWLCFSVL

T1 sequence (P49327 whole entry): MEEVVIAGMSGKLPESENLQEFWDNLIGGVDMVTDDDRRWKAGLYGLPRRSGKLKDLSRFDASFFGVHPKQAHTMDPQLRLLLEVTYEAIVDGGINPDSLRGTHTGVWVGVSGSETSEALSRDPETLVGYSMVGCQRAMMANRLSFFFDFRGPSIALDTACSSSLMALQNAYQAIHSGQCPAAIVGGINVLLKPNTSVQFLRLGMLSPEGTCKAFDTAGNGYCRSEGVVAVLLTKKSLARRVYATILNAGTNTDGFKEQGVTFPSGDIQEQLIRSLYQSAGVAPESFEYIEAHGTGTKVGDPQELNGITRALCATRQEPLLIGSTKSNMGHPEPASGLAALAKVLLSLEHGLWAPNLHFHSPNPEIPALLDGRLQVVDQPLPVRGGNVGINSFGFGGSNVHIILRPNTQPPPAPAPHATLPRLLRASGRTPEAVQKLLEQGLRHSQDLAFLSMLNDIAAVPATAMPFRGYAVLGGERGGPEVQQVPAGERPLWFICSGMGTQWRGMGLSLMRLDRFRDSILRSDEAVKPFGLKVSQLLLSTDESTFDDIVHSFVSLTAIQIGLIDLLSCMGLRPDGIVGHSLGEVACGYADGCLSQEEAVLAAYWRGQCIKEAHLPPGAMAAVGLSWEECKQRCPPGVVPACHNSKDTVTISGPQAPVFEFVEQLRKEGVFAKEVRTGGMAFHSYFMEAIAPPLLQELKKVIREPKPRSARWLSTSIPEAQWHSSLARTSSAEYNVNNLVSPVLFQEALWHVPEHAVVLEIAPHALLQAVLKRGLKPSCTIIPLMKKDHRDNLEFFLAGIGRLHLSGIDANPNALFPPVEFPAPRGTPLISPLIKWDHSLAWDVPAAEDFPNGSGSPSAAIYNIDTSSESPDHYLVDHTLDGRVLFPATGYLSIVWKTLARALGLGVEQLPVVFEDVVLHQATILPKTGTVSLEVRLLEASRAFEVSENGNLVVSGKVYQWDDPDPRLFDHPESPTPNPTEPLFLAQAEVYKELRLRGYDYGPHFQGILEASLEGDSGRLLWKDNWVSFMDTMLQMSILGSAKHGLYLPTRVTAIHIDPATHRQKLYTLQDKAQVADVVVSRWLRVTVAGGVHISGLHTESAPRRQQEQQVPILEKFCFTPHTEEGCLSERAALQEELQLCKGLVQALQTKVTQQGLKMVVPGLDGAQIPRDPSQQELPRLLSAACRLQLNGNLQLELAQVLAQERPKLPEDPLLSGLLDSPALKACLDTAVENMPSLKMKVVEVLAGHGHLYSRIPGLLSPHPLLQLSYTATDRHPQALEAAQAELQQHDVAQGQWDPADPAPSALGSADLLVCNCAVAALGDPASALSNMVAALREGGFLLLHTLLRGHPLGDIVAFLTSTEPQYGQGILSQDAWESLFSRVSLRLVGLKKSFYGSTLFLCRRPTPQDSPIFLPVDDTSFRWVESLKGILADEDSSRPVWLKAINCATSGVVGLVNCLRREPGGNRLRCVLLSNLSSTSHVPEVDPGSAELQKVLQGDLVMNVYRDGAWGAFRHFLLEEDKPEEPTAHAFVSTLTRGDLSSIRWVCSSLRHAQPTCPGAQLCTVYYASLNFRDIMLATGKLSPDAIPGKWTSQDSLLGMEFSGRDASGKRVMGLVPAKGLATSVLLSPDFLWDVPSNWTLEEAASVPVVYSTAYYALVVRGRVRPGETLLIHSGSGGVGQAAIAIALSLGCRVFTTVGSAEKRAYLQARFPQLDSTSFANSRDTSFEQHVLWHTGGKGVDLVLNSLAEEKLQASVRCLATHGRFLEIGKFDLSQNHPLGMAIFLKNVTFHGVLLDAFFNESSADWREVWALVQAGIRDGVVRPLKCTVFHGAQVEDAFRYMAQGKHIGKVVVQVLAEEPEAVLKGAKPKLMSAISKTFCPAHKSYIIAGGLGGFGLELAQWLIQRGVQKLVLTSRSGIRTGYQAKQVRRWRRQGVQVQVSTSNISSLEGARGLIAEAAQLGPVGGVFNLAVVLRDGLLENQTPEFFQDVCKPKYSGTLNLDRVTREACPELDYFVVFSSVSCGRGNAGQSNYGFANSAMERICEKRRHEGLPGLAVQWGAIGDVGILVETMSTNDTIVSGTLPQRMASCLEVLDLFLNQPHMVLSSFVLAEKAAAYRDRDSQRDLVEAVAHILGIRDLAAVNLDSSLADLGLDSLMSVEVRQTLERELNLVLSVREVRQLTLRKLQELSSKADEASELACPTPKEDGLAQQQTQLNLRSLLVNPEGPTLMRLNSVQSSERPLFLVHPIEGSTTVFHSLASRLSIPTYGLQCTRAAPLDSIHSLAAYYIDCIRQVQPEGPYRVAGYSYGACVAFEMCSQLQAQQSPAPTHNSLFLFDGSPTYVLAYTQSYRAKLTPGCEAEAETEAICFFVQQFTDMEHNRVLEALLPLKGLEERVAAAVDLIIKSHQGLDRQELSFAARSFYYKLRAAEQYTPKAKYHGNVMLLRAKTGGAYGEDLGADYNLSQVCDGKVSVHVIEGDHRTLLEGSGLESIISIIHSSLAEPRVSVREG
Chain of Voltage-dependent T-type calcium channel subunit alpha-1H (O95180 whole entry): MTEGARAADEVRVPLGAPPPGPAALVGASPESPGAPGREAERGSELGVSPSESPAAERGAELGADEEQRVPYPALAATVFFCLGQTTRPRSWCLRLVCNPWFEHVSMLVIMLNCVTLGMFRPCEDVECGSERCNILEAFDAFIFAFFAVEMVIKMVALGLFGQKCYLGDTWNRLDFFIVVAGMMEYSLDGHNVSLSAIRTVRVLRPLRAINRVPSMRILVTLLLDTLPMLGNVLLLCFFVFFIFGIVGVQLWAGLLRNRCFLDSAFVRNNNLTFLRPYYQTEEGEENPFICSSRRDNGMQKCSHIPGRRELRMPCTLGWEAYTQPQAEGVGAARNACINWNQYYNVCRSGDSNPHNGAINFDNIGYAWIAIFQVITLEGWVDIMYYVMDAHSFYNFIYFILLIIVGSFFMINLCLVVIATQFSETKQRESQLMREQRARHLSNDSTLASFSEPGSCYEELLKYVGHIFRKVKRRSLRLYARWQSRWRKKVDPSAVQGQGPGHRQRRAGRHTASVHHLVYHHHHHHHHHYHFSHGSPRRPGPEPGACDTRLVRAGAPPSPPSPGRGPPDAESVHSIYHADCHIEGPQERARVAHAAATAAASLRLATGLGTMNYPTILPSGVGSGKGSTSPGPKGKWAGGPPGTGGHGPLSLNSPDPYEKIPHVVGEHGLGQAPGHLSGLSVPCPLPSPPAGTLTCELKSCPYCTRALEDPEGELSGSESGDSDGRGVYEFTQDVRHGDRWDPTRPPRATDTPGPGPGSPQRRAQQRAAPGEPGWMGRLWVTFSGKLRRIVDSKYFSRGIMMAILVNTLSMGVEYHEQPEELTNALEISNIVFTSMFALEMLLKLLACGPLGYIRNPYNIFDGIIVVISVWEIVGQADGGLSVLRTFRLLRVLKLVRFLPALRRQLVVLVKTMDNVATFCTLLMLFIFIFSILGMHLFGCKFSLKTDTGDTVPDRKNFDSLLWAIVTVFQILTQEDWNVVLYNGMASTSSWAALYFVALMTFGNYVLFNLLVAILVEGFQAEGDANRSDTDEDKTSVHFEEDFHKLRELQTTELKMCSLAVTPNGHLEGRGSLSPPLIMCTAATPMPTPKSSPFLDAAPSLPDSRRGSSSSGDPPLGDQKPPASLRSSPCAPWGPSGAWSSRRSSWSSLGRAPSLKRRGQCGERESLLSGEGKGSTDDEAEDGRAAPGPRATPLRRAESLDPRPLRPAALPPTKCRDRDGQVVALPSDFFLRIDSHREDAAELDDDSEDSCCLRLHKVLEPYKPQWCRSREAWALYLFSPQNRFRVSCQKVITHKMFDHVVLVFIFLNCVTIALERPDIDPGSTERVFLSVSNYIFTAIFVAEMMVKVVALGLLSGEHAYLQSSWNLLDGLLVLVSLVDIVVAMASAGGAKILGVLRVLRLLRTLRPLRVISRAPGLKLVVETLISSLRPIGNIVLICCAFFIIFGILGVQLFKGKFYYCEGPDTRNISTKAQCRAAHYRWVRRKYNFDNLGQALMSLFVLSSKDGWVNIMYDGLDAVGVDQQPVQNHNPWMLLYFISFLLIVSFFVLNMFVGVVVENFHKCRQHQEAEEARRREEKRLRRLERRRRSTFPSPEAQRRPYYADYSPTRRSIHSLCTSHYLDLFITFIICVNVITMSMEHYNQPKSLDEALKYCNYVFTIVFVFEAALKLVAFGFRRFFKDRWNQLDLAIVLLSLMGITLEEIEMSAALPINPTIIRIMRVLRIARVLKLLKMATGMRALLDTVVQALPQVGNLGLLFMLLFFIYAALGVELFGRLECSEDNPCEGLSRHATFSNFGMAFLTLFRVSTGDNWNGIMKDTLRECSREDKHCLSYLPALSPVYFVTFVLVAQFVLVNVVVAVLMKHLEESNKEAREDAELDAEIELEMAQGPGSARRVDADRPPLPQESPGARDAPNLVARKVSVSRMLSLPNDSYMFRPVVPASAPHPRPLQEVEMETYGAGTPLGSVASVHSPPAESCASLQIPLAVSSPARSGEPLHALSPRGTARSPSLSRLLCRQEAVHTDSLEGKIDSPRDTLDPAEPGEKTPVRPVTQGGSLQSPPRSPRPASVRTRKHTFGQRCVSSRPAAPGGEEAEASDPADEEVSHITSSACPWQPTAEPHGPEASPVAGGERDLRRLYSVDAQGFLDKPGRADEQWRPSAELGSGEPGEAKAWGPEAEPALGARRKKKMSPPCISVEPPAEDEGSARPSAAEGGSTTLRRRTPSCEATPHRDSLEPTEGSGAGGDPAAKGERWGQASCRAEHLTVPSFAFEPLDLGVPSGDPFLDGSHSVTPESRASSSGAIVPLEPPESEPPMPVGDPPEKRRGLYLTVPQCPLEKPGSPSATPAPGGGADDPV

## C[C@H](CO)N1C[C@H](C)[C@H](CN(C)S(=O)(=O)c2cccc(F)c2)Oc2cc(Br)ccc2S1(=O)=O
[1]
  AC50: 3.27 µM (active)
[2]
  AC50: 5.29 µM (active)
[3]
  AC50: 33.5 µM (active)

## Cc1nc(-c2ccccc2)sc1-c1nc(-c2cccnc2)ncc1S(=O)(=O)c1ccccc1
[4]
  EC50: 8.73 µM (active)

## CCN(CC)S(=O)(=O)c1ccc(NC(=O)CCC2CCCCC2)cc1
[4]
  EC50: 10.3 µM (active)

## COc1ccc2[nH]c3c(c2c1)CCN1C(=O)C(CC(=O)NCCc2ccccn2)C[C@H](C(=O)N2CCOCC2)[C@@]31CCC1CCCC1 (stereo partly drawn)
[5]
  IC50: 8.91 µM (active)
[6]
  IC50: 7.16 µM (active)

## CCCCn1nc2cc(C(=O)NCCc3cccs3)ccc2c1OCC
[7]
  IC50: 11.8 µM (active)

## COc1ccc(CCN(C)C(=O)c2ccc(COc3ccccc3)o2)cc1OC
[7]
  IC50: 13.8 µM (active)
[8]
  IC50: > 20 µM (inactive)

## COc1ccc(-c2csc3nc(-c4cccnc4)nc(Cl)c23)cc1OC
[9]
  EC50: 11.5 µM (active)
[10]
  EC50: 10.4 µM (active)

## CCCN=C(S)N1CCCC(c2nc3ccccc3[nH]2)C1 (stereo not drawn)
[11]
  EC50: > 350 µM (not active)
[12]
  EC50: > 195 µM (not active)
[13]
  EC50: > 350 µM (not active)

## Cc1ccccc1N=C(S)NNc1ncc(C(F)(F)F)cc1Cl
[14]
  EC50: > 40 µM (inactive)
[15]
  IC50: 39.3 µM (not active)

## O=C(O)CCN(CC(=O)c1ccc(Cl)cc1)S(=O)(=O)c1ccc([N+](=O)[O-])cc1
[5]
  IC50: 4.83 µM (active)
[6]
  IC50: 5.21 µM (active)

## Cc1ccc(NC(=O)CCC(=O)N/N=C/c2ccc(O)cc2O)cc1
[11]
  EC50: > 350 µM (not active)
[16]
  IC50: 56.6 µM (active)
[13]
  EC50: > 350 µM (not active)

## Cc1nc2ccc([N+](=O)[O-])cc2c(=O)n1Cc1ccc(F)cc1
[5]
  IC50: 4.49 µM (active)
[6]
  IC50: 3.27 µM (active)

## C[C@H](CO)N1C[C@H](C)[C@H](CN(C)Cc2ccccc2)Oc2cc(-c3ccccc3)ccc2S1(=O)=O
[1]
  AC50: 21 µM (active)
[2]
  AC50: 18.9 µM (active)
[3]
  AC50: 26.7 µM (active)

## CC(C)c1nc(C(=O)N2CCCC(N3CCN(c4cccc(Cl)c4)CC3)C2)cs1 (stereo not drawn)
[7]
  IC50: 13.2 µM (active)

## Cn1c(=O)cc(C(=O)N/N=C/c2ccc(F)cc2)[nH]c1=O
[11]
  EC50: > 350 µM (not active)
[13]
  EC50: > 350 µM (not active)

## O=C(COC(=O)c1cc([N+](=O)[O-])ccc1Cl)NC1CCCC1
[5]
  IC50: 1.12 µM (active)
[6]
  IC50: 0.979 µM (active)

## O=C1C=C(c2ccc(Cl)c(C(F)(F)F)c2)C[C@@H](c2ccc3c(c2)OCO3)C1
[5]
  IC50: 5.82 µM (active)
[17]
  AC50: 5.04 µM (active)
[6]
  IC50: 5.66 µM (active)

## Cc1cc(NC(=O)COC(=O)C(Nc2ccc(C(F)(F)F)cc2Cl)C(C)C)no1 (stereo not drawn)
[4]
  EC50: 3.96 µM (active)
[18]
  IC50: 9.49 µM (not active)

## CCCOc1cccc(C2C(C(=O)c3ccco3)=C(O)C(=O)N2CCCn2ccnc2)c1 (stereo not drawn)
[11]
  EC50: > 350 µM (not active)
[13]
  EC50: > 350 µM (not active)

## COc1ccc(CC(=O)N(C)Cc2ccc(C(C)(C)C)cc2)cc1S(=O)(=O)N1CCOCC1
[5]
  IC50: 2.02 µM (active)
[6]
  IC50: 2.25 µM (active)

## O=C(CSc1c[nH]c2ccccc12)NCc1ccc2c(c1)OCO2
[11]
  EC50: > 350 µM (not active)
[13]
  EC50: > 350 µM (not active)

## COc1cc2c(cc1OC)C1(Nc3c-2c(C)nn3-c2ccccc2)C(=O)Nc2ccccc21 (stereo not drawn)
[10]
  EC50: 73.2 µM (active)

## CCN1CCN(c2ccc(NC(=O)c3ccc4c(c3)nc(O)n4Cc3ccc(OC)cc3)cc2)CC1
[9]
  EC50: 34.2 µM (active)
[10]
  EC50: 32.2 µM (active)

## N=c1c2c(ncn1Cc1ccco1)Oc1c(ccc3ccccc13)C2c1ccccc1 (stereo not drawn)
[9]
  EC50: 5.53 µM (active)
[10]
  EC50: 5.92 µM (active)
[17]
  AC50: 2.25 µM (active)

## CCOC(=O)c1cccc(NC(=O)CSc2nnc(C)n2Cc2ccccc2)c1
[7]
  IC50: 0.794 µM (active)

## COc1ccc(N2CCN(S(=O)(=O)c3cc(-c4cc(C)no4)ccc3C(C)C)CC2)cc1
[11]
  EC50: > 350 µM (not active)
[13]
  EC50: > 350 µM (not active)

## COc1cccc(CNC(=O)CSCc2cnn(-c3ccccc3)c2-n2cccc2)c1OC
[4]
  EC50: 3.32 µM (active)
